Assay results published in article PMC5800123, “Preparation and Optimisation of Cross-Linked Enzyme Aggregates Using Native Isolate White Rot Fungi Trametes versicolor and Fomes fomentarius for the Decolourisation of Synthetic Dyes” (International Journal of Environmental Research and Public …, 2017).

Legend:
[1] = test system: T1, free laccase from T. versicolor (TV); details: read-out: Km Free Laccase; free enzyme from crude culture supernatant; ABTS 0.05-2.0 mM; general assay buffer 0.1 M sodium acetate pH 4.5
T1 construct: gene LCC1

[2] = test system: T2, free laccase from F. fomentarius (FF); details: read-out: Km Free Laccase; free enzyme from crude culture supernatant; ABTS 0.05-2.0 mM; general assay buffer 0.1 M sodium acetate pH 4.5
T2 construct: gene lac

Km [1]: 1900 µM
Km [2]: 87 µM
SMILES: CCn1c(=NN=c2sc3cc(S(=O)(=O)O)ccc3n2CC)sc2cc(S(=O)(=O)O)ccc21 [ABTS]
